According to ChEMBL document CHEMBL3797148, “Antiprotozoal activity of dehydroabietic acid derivatives against Leishmania donovani and Trypanosoma cruzi” (Medchemcomm, 2016):

Assays:
[1] = test system: Leishmania braziliensis; test: Antileishmanial activity against promastigote stage of Leishmania braziliensis MHOM/BR/75/M2904 after 72 hrs by Neubauer haemocytometric analysis; type: functional; conditions: MHOM/BR/75/M2904, 72 h
[2] = test system: Trypanosoma cruzi; test: Antiparasitic activity against epimastigote stage of Trypanosoma cruzi IRHOD/CO/2008/SN3 after 72 hrs by Neubauer haemocytometric analysis; type: functional, organism-based; conditions: IRHOD/CO/2008/SN3, 72 h
[3] = test system: Leishmania infantum; test: Antileishmanial activity against promastigote stage of Leishmania infantum MCAN/ES/2001/UCM-10 after 72 hrs by Neubauer haemocytometric analysis; type: functional, organism-based; conditions: MCAN/ES/2001/UCM-10, 72 h
[4] = test system: Leishmania donovani; test: Antileishmanial activity against axenic amastigote stage of Leishmania donovani MHOM/SD/1962/1S-Cl2d assessed as inhibition of parasite growth at 50 uM after 24 hrs by Alamar blue viability assay; type: functional; conditions: read-out: GI
[5] = test system: Trypanosoma cruzi; test: Antiparasitic activity against amastigote stage of Trypanosoma cruzi Tulahuen C2C4 expressing LacZ gene infected in rat L6 cells after 96 hrs by photometric analysis; type: functional, organism-based; conditions: Tulahuen C2C4, L6, 96 h
[6] = test system: Trypanosoma cruzi; test: Potency index of ratio of Benznidazole IC50 to compound IC50 for antiparasitic activity against amastigote stage of Trypanosoma cruzi Tulahuen C2C4; type: functional
[7] = Selectivity index, ratio of IC50 for rat L6 cells to IC50 for amastigote stage of Trypanosoma cruzi Tulahuen C2C4 expressing LacZ gene infected in rat L6 cells; type: toxicity, cell-based; conditions: read-out: Ratio IC50
[8] = test system: Leishmania donovani; test: Antileishmanial activity against axenic amastigote stage of Leishmania donovani MHOM/SD/1962/1S-Cl2d assessed as inhibition of parasite growth at 15 uM after 24 hrs by Alamar blue viability assay; type: functional; conditions: read-out: GI
[9] = test system: L6; test: Cytotoxicity against rat L6 cells after 72 hrs by Alamar blue assay; type: cell-based; conditions: L6, 72 h
[10] = Cytotoxicity against human THP1 cells after 24 hrs by Alamar blue viability assay; type: cell-based; conditions: THP-1, 24 h
[11] = test system: Leishmania donovani; test: Antileishmanial activity against axenic amastigote stage of Leishmania donovani MHOM/SD/1962/1S-Cl2d assessed as inhibition of parasite growth after 24 hrs by Alamar blue viability assay; type: functional, organism-based
[12] = test system: Leishmania donovani; test: Antileishmanial activity against axenic amastigote stage of Leishmania donovani MHOM/SD/1962/1S-Cl2d assessed as inhibition of parasite growth at 5 uM after 24 hrs by Alamar blue viability assay; type: functional; conditions: read-out: GI
[13] = Selectivity index, ratio of IC50 for human THP-1 cells to IC50 for Leishmania donovani MHOM/SD/1962/1S-Cl2d axenic amastigotes; type: toxicity, cell-based; conditions: read-out: Ratio IC50
[14] = test system: Leishmania donovani; test: Antileishmanial activity against Leishmania donovani promastigotes infected in human THP1 cells assessed as inhibition of amastigote growth by luciferase assay; type: functional, organism-based; conditions: THP-1
[15] = test system: Leishmania donovani; test: Antileishmanial activity against axenic amastigote stage of Leishmania donovani MHOM/SD/1962/1S-Cl2d assessed as inhibition of parasite growth at 1 uM after 24 hrs by Alamar blue viability assay; type: functional; conditions: read-out: GI

IC50 [5] [µM]	SMILES	inhibition of growth at 50 µM [4] [%]	selectivity ratio [7]	inhibition of growth at 15 µM [8] [%]	IC50 [9] [µM]	further results
	COC(=O)[C@]1(C)CCC[C@]2(C)C3=C(CC[C@@H]12)C(=O)C(C(C)C)=CC3=O					IC50 [1]: 14.2 µM; IC50 [2]: 14.2 µM; IC50 [3]: 14.2 µM
	COC(=O)[C@H](Cc1ccccc1)NC(=O)[C@]1(C)CCC[C@]2(C)c3ccc(C(C)C)cc3CC[C@@H]12	68.6				
	COC(=O)[C@@H](NC(=O)[C@]1(C)CCC[C@]2(C)c3ccc(C(C)C)cc3CC[C@@H]12)C(C)C	57.1				
1.4	COC(=O)[C@@H](Cc1cccnc1)NC(=O)[C@]1(C)CCC[C@]2(C)c3ccc(C(C)C)cc3CC[C@@H]12	98.6	17	16.5	24.1	Ratio IC50 [6]: 1.5
	COC(=O)CNC(=O)[C@]1(C)CCC[C@]2(C)c3ccc(C(C)C)cc3C(=O)C[C@@H]12	37.1				
	CC(C)c1ccc2c(c1)/C(=N\O)C[C@H]1[C@](C)(C(=O)N[C@@H](CC3CCCCC3)C(=O)O)CCC[C@]21C	97.7		52.3		
	CC(C)c1ccc2c(c1)CC[C@H]1[C@](C)(C(N)=O)CCC[C@]21C	55.2				
	CSCC[C@@H](NC(=O)[C@]1(C)CCC[C@]2(C)c3ccc(C(C)C)cc3CC[C@@H]12)C(=O)O	98		47		
	COC(=O)[C@H](CC1CCCCC1)NC(=O)[C@]1(C)CCC[C@]2(C)c3ccc(C(C)C)cc3CC[C@@H]12	43.2				
	CC[C@H](NC(=O)[C@]1(C)CCC[C@]2(C)c3ccc(C(C)C)cc3CC[C@@H]12)C(=O)OC	57.6				
27.7	CC(C)c1ccc2c(c1)CC[C@H]1[C@](C)(C(=O)N[C@H](Cc3ccccc3)C(=O)O)CCC[C@]21C	98.3	2	96.8	60.6	IC50 [10]: 41.4 µM; IC50 [11]: 5.2 µM; inhibition of growth at 5 µM [12]: 54.1%; selectivity ratio [13]: 8
5.8	COC(=O)[C@H](CC1CCCCC1)NC(=O)[C@]1(C)CCC[C@]2(C)c3ccc(C(C)C)cc3/C(=N\O)C[C@@H]12	90.8	2	85.8	13.5	IC50 [10]: 37.2 µM; IC50 [11]: 5.6 µM; inhibition of growth at 5 µM [12]: 52.9%; selectivity ratio [13]: 7
	CC(C)c1ccc2c(c1)CC[C@H]1[C@](C)(C(=O)NCC(=O)O)CCC[C@]21C	69.3				
	CC(C)c1ccc2c(c1)CC[C@H]1[C@](C)(C(=O)N[C@H](Cc3ccc(O)cc3)C(=O)O)CCC[C@]21C	96.1		9.8		
22.8	CC(C)c1ccc2c(c1)CC[C@H]1[C@](C)(C(=O)N[C@@H](CC3CCCCC3)C(=O)O)CCC[C@]21C	98.1	1	92.2	29.1	IC50 [10]: 40.5 µM; IC50 [11]: 1.7 µM; inhibition of growth at 5 µM [12]: 63.6%; selectivity ratio [13]: 24; IC50 [14]: 5 µM
	COC(=O)[C@@H](Cc1c[nH]c2ccccc12)NC(=O)[C@]1(C)CCC[C@]2(C)c3ccc(C(C)C)cc3CC[C@@H]12	46.9				
	COC(=O)CNC(=O)[C@]1(C)CCC[C@]2(C)c3ccc(C(C)C)cc3CC[C@@H]12	28.7				

IC50 [5] [µM]	SMILES	inhibition of growth at 50 µM [4] [%]	selectivity ratio [7]	inhibition of growth at 15 µM [8] [%]	IC50 [9] [µM]	further results
32.7	COC(=O)[C@@H](Cc1ccc[n+]([O-])c1)NC(=O)[C@]1(C)CCC[C@]2(C)c3ccc(C(C)C)cc3CC[C@@H]12	27.1	3		85.9	
4.2	COC(=O)[C@H](CC1CCCCC1)NC(=O)[C@]1(C)CCC[C@]2(C)c3ccc(C(C)C)cc3C(=O)C[C@@H]12	90.2	8	76.3	33.5	IC50 [10]: 62.1 µM; IC50 [11]: 4.6 µM; inhibition of growth at 5 µM [12]: 33.3%; selectivity ratio [13]: 14; IC50 [14]: 6.6 µM
	COC(=O)[C@H](CC(C)C)NC(=O)[C@]1(C)CCC[C@]2(C)c3ccc(C(C)C)cc3CC[C@@H]12	64.9				
	CC(C)c1ccc2c(c1)CC[C@H]1[C@](C)(C(=O)N[C@H](Cc3c[nH]c4ccccc34)C(=O)O)CCC[C@]21C	98.3		53.9		
	COC(=O)[C@@H](CCSC)NC(=O)[C@]1(C)CCC[C@]2(C)c3ccc(C(C)C)cc3CC[C@@H]12	88.7		50.8		
33.1	CC(C)c1ccc2c(c1)CC[C@H]1[C@](C)(C(=O)N[C@@H](Cc3ccccc3)C(=O)O)CCC[C@]21C	98.1	1	77.6	45.4	IC50 [10]: 82.2 µM; IC50 [11]: 2.5 µM; inhibition of growth at 5 µM [12]: 53.1%; selectivity ratio [13]: 33; IC50 [14]: 9 µM
	COC(=O)[C@@H](Cc1ccccc1)NC(=O)[C@]1(C)CCC[C@]2(C)c3ccc(C(C)C)cc3CC[C@@H]12	77.5		51.5		
	CC[C@H](NC(=O)[C@]1(C)CCC[C@]2(C)c3ccc(C(C)C)cc3CC[C@@H]12)C(=O)O	85		5.9		
	CC(C)c1ccc2c(c1)CC[C@H]1[C@](C)(C(=O)N[C@H](C(=O)O)C(C)C)CCC[C@]21C	90.6		10.9		
	COC(=O)[C@@H](Cc1ccc(O)cc1)NC(=O)[C@]1(C)CCC[C@]2(C)c3ccc(C(C)C)cc3CC[C@@H]12	98.9		94.7		IC50 [10]: 21.7 µM; IC50 [11]: 11.1 µM; inhibition of growth at 5 µM [12]: 38.8%; selectivity ratio [13]: 2
83.1	CC(C)c1ccc2c(c1)CC[C@H]1[C@](C)(C(=O)N[C@H](Cc3cccnc3)C(=O)O)CCC[C@]21C	9.8	2		174	
3.9	CC(C)c1ccc2c(c1)C(=O)C[C@H]1[C@](C)(C(=O)N[C@@H](CC3CCCCC3)C(=O)O)CCC[C@]21C	99.1	20	98.6	77.2	IC50 [10]: 52 µM; IC50 [11]: 4 µM; inhibition of growth at 5 µM [12]: 82.8%; selectivity ratio [13]: 13; IC50 [14]: 2.3 µM
	CC(C)c1ccc2c(c1)CC[C@H]1[C@](C)(C(=O)N[C@H](Cc3ccc[n+]([O-])c3)C(=O)O)CCC[C@]21C	1.9				
	CC(C)C[C@H](NC(=O)[C@]1(C)CCC[C@]2(C)c3ccc(C(C)C)cc3CC[C@@H]12)C(=O)O	91.2		34.8		
	C[C@@H]1[C@H](O)[C@@H](C)/C=C/C=C/C=C/C=C/C=C/C=C/C=C/[C@H](O[C@@H]2O[C@H](C)[C@@H](O)[C@H](N)[C@@H]2O)C[C@@H]2O[C@](O)(C[C@@H](O)C[C@@H](O)[C@H](O)CC[C@@H](O)C[C@@H](O)CC(=O)O[C@H]1C)C[C@H](O)[C@H]2C(=O)O [AMPHOTERICIN B]					inhibition of growth at 1 µM [15]: > 90%
101	CC(C)c1ccc2c(c1)CC[C@H]1[C@](C)(C(=O)O)CCC[C@]21C [DEHYDROABIETIC ACID]	91.1	1	59.2	151	
